This note sets out measurements from ChEMBL document CHEMBL1201862, “PubChem BioAssay data set” (2004).

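Method: 48-hour compound exposure of cells in 96-well plates, five concentrations, linear interpolation of endpoints. GI50 = concentration required for 50% inhibition of growth.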 The source made the active and inactive calls. No stated cut-off is given here; in the data, active = GI50 up to about 1.1 µM and inactive = higher. Where only a bound is given, the exact number is not on record here.

Some test systems named below: CAKI-1; DU-145; EKVX; HCT-116; HCT-15; HOP-62; HT-29; LOX IMVI; MDA-MB-231; MDA-MB-435; NCI-H23; NCI/ADR-RES; OVCAR-3; OVCAR-4; OVCAR-5; RXF 393; SNB-75; SW-620; UACC-257; UO-31.
Holding throughout (assay): DTP human tumour cell line panel, 48 h

Turning to `CN(C)c1ccc(/C=C/c2cc[n+](C)c3ccccc23)cc1`, the GI50 – broadly, the concentration that inhibits growth by half – with CAKI-1 was 2.79 µM (inactive); with DU-145, 5.6 µM (inactive); in the assay with EKVX, 34.7 µM (inactive); with HCT-116, 1.58 µM (inactive); with HCT-15 it was 29.9 µM; in the assay on HOP-62, 4.63 µM (inactive). Further, the GI50 in the assay on HT-29 is 2.04 µM (inactive); in the assay with LOX IMVI, 3.48 µM (inactive); in the assay with MDA-MB-231, 5.94 µM (inactive); with MDA-MB-435 it was 2.03 µM (inactive); with NCI-H23 it was 2.11 µM (inactive); in the assay on NCI/ADR-RES, > 100 µM (inactive). Further, the GI50 with OVCAR-3 is 1.77 µM (inactive); in the assay on OVCAR-4, 5.05 µM (inactive); in the assay with OVCAR-5, 6.43 µM (inactive); in the assay on RXF 393 it was 7.1 µM (inactive); in the assay on SNB-75, 3.45 µM (inactive); in the assay with SW-620, 2.44 µM (inactive). For the same compound, the GI50 in the assay on UACC-257 was 1.2 µM (inactive); in the assay with UO-31 it was 23.8 µM (inactive).

Turning to `Cc1ccc2c(=O)cc(-c3ccc(-c4ccccc4)s3)[nH]c2n1`, the GI50 was 45 µM (inactive) in the assay with CAKI-1; > 100 µM (inactive) with DU-145; 27.2 µM (inactive) with EKVX; 25.6 µM (inactive) in the assay on HCT-116; greater than 28.8 µM in the assay with HCT-15; 30.6 µM (inactive) in the assay with HOP-62. The GI50 with HT-29 is > 100 µM (inactive); with LOX IMVI, > 48.3 µM (inactive); in the assay with MDA-MB-231 it was 39.7 µM (inactive); in the assay with MDA-MB-435, 5.33 µM (inactive); in the assay with NCI-H23 it was 22.1 µM (inactive); in the assay with NCI/ADR-RES, > 57.1 µM (inactive). The GI50 in the assay with OVCAR-3 was 24.8 µM (inactive); in the assay on OVCAR-4 it was 38.5 µM (inactive); with OVCAR-5 it was > 100 µM (inactive); in the assay with RXF 393, > 59.8 µM (inactive); with SNB-75, 72.4 µM (inactive); with SW-620 it was > 31.5 µM (inactive). The figures for the GI50 in the assay on UACC-257 and in the assay with UO-31 were 8.47 µM (inactive) and 0.0305 µM (active), respectively.

`Cc1cc(-c2nc3ccc(F)cc3s2)ccc1NC(=O)C(N)CCCCN` (stereo not given): the GI50 is 9.64 µM (inactive) in the assay with CAKI-1; 12.3 µM (inactive) in the assay with DU-145; 12.6 µM (inactive) in the assay with EKVX; 3.71 µM (inactive) in the assay with HCT-116; 9.08 µM with HCT-15; 3.22 µM (inactive) in the assay on HOP-62. The GI50 with HT-29 is 3.54 µM (inactive); in the assay on LOX IMVI, 2.3 µM (inactive); in the assay on MDA-MB-231, 9.38 µM (inactive); in the assay on MDA-MB-435, 2.17 µM (inactive); in the assay with NCI-H23, 4.73 µM (inactive); in the assay with NCI/ADR-RES, 15.1 µM (inactive). Also, the GI50 is 7.83 µM (inactive) with OVCAR-3; 8.28 µM (inactive) in the assay on OVCAR-4; 7.64 µM (inactive) in the assay on OVCAR-5; 10.4 µM (inactive) in the assay with RXF 393; 4.83 µM (inactive) in the assay on SNB-75; 2.9 µM (inactive) in the assay with SW-620. For the same compound, the GI50 was 12.8 µM (inactive) in the assay with UACC-257 and 2.69 µM (inactive) with UO-31.

Regarding `CCOC(=O)C(CCSC)(CCSC)C(=O)OCC`, the GI50 is > 100 µM (inactive) in the assay with CAKI-1; > 100 µM (inactive) in the assay with DU-145; > 100 µM (inactive) in the assay with EKVX; > 100 µM (inactive) in the assay on HCT-116; greater than 100 µM in the assay on HCT-15; > 100 µM (inactive) in the assay on HOP-62. Also, the GI50 in the assay with HT-29, in the assay with LOX IMVI, in the assay with MDA-MB-231, with MDA-MB-435, in the assay with NCI-H23 and in the assay on NCI/ADR-RES was > 100 µM (inactive) in each case. Further, the GI50 with OVCAR-3, with OVCAR-4, in the assay with OVCAR-5, in the assay with RXF 393, in the assay with SNB-75 and with SW-620 was > 100 µM (inactive) each time. In addition, the GI50 with UACC-257 and in the assay with UO-31 was > 100 µM (inactive) each time.

`OC(c1cc2ccccc2o1)c1cc2ccccc2s1` (stereo not given): the GI50 with CAKI-1 is > 10 µM (inactive); in the assay with DU-145 it was > 10 µM (inactive); in the assay with EKVX, 7.23 µM (inactive); in the assay on HCT-116, > 10 µM (inactive); with HCT-15 it was greater than 10 µM; in the assay on HOP-62 it was > 10 µM (inactive). Besides, the GI50 in the assay with HT-29 was > 10 µM (inactive); with LOX IMVI it was > 10 µM (inactive); in the assay on MDA-MB-231 it was > 10 µM (inactive); in the assay with MDA-MB-435, 3.78 µM (inactive); in the assay with NCI-H23, > 10 µM (inactive); in the assay with NCI/ADR-RES, > 10 µM (inactive). Besides, the GI50 with OVCAR-3, in the assay with OVCAR-4, in the assay on OVCAR-5, in the assay on RXF 393, in the assay with SNB-75 and in the assay with SW-620 was > 10 µM (inactive) in each case. In addition, the GI50 with UACC-257 and in the assay with UO-31 was > 10 µM (inactive) throughout.

For `CC1(C)CCCCCCCCCC(C)(CCCCCCCCCCCCO)C1=O` (stereo not given), the GI50 was 20.7 µM (inactive) in the assay with CAKI-1; 17.7 µM (inactive) with DU-145; 19.3 µM (inactive) in the assay on EKVX; 17.7 µM (inactive) in the assay on HCT-116; 21.7 µM with HCT-15; 22.5 µM (inactive) with HOP-62. The GI50 is 16.9 µM (inactive) in the assay with HT-29; 17.6 µM (inactive) in the assay with LOX IMVI; 15.3 µM (inactive) with MDA-MB-231; 17.7 µM (inactive) in the assay with MDA-MB-435; 18.7 µM (inactive) with NCI-H23; 18.5 µM (inactive) in the assay with NCI/ADR-RES. Further, the GI50 in the assay with OVCAR-3 was 15.6 µM (inactive); in the assay with OVCAR-4, 17.1 µM (inactive); in the assay on OVCAR-5, 18.5 µM (inactive); in the assay on RXF 393, 18.7 µM (inactive); in the assay with SNB-75, 16.1 µM (inactive); with SW-620 it was 18.3 µM (inactive). For the same compound, the GI50 in the assay with UACC-257 was 16.2 µM (inactive); in the assay with UO-31 it was 18 µM (inactive).

As for `CC(C)(C)C1CCC2c3c([nH]c4ccccc34)C3C(=O)N(c4cccc([N+](=O)[O-])c4)C(=O)C3C2C1` (stereo not given), the GI50 is 19.6 µM (inactive) with CAKI-1; 25.9 µM (inactive) with DU-145; 22.4 µM (inactive) in the assay with EKVX; 11.6 µM (inactive) with HCT-116; 37.1 µM with HCT-15; 29.6 µM (inactive) in the assay on HOP-62. The GI50 in the assay on HT-29 was 17.7 µM (inactive); with LOX IMVI it was 17.8 µM (inactive); in the assay on MDA-MB-231, 30.5 µM (inactive); in the assay on MDA-MB-435 it was 16.1 µM (inactive); with NCI-H23, 15.5 µM (inactive); in the assay on NCI/ADR-RES, 27.1 µM (inactive). In addition, the GI50 in the assay with OVCAR-3 was 35.6 µM (inactive); in the assay on OVCAR-4, 25.5 µM (inactive); in the assay on OVCAR-5 it was 52.2 µM (inactive); with RXF 393, 54 µM (inactive); in the assay on SNB-75, 59.6 µM (inactive); in the assay on SW-620, 57.8 µM (inactive). The GI50 with UACC-257 was 22.5 µM (inactive); in the assay with UO-31 it was 35.2 µM (inactive).
